Experimental data reported in patent US8389739B1, “Modulators of retinoid-related orphan receptor gamma” (Orphagen Pharmaceuticals, priority 2006, dated 2013).
Read-outs that look alike come from different tables or passages of the source.

What was measured:
Experiment in all cases: Crossreactive receptor transcriptional assay (Gal4 hybrid)
Format in all cases: cell-based
hAR (androgen receptor) = biological target: T1, hAR (androgen receptor) (Homo sapiens, UniProt P10275)
T1 construct: 646-919; expressed in transfected cells; host or cells: CHO cells, transient transfection
T1 sequence (P10275 647-920): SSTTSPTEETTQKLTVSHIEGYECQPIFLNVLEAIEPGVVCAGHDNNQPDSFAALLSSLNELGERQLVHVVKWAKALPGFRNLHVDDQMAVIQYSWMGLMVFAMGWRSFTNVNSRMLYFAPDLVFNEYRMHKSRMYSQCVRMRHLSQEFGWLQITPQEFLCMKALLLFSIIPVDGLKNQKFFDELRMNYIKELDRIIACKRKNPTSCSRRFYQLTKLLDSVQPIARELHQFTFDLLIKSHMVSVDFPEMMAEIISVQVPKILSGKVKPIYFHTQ

[1] = biological target: T2, hERα (Estrogen receptor-alpha) (Homo sapiens, UniProt P03372)
T2 construct: 249-595; expressed in transfected cells; host or cells: CHO cells, transient transfection
T2 sequence (P03372 249-595): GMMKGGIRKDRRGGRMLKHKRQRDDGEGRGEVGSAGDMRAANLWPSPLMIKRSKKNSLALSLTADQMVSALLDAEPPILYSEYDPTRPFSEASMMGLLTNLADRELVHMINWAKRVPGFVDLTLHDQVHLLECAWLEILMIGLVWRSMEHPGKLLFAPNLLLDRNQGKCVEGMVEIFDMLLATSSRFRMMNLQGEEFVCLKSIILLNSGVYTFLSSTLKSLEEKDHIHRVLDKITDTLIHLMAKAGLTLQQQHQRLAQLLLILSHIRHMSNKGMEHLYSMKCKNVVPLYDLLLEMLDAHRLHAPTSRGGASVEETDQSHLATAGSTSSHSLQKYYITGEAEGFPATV

hPPARγ = biological target: T3, hPPARγ (Homo sapiens, UniProt P37231)
T3 construct: 175-477; expressed in transfected cells; host or cells: CHO cells, transient transfection
T3 sequence (P37231 175-477 isoform P37231-2): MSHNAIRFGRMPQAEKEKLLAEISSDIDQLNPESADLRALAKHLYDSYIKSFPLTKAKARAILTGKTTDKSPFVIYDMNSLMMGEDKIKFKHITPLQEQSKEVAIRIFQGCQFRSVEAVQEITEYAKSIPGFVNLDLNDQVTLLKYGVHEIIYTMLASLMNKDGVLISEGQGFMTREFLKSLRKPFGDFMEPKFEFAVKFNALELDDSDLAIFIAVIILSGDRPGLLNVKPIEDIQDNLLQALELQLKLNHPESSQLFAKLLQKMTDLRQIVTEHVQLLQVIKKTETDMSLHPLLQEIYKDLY

hPPARδ = biological target: T4, hPPARδ (Homo sapiens, UniProt Q03181)
T4 construct: 138-441; expressed in transfected cells; host or cells: CHO cells, transient transfection
T4 sequence (Q03181 138-441): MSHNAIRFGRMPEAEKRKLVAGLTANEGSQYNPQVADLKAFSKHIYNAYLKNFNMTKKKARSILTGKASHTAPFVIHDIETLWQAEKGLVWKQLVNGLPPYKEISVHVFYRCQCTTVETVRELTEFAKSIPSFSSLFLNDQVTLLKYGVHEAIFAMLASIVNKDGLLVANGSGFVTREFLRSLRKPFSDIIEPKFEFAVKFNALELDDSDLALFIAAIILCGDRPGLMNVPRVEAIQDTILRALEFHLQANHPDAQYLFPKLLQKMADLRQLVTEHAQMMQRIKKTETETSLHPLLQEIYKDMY

[2] = biological target: T5, mGR (glucocorticoid receptor) (Mus musculus, UniProt P06537)
T5 construct: 524-793; expressed in transfected cells; host or cells: CHO cells, transient transfection
T5 sequence (P06537 524-793 isoform P06537-2): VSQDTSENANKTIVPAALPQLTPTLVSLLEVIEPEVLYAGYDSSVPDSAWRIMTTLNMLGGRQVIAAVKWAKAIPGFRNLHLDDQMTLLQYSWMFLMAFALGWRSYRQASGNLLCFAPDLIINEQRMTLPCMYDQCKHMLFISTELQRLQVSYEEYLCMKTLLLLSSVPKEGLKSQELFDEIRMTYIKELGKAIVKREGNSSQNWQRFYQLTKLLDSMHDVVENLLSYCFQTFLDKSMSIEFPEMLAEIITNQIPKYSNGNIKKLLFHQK

[3] = Table 6, read-out: Potency (EC50) at hAR
[4] = Table 6, read-out: Potency (EC50) at hERα
[5] = Table 6, read-out: Potency (EC50) at hPPARγ
[6] = Table 6, RORγ ligands: no significant activity at 20 μM, read-out: Potency (EC50) at hPPARδ
[7] = Table 6, read-out: Potency (EC50) at mGR

Measured: EC50

CC(=O)O[C@H]1CC[C@@]2(C)C(CC[C@]3(C)C2C(=O)C=C2C4[C@@H](C)[C@H](C)CC[C@]4(C(=O)O)CC[C@]23C)C1(C)C (stereo in doubt) [OR-13571, 10-Acetoxy-1,2,6a,6b,9,9,12a-heptamethyl-13-oxo-1,3,4,5,6,6a,6b,7,8,8a,9,10,11,12,12a,12b,13,14b-octadecahydro-2H-picene-4a-carboxylic acid]
> 10 µM: hAR (androgen receptor); [3] | [1]; [4] | hPPARγ; [5] | hPPARδ; [6] | [2]; [7]

O=S(=O)(c1ccccc1)N(CC(F)(F)F)c1ccc(C(O)(C(F)(F)F)C(F)(F)F)cc1 [Compound T0901317, N-(2,2,2-Trifluoro-ethyl)-N-[4-(2,2,2-trifluoro-1-hydroxy-1-trifluoromethyl-ethyl)-phenyl]-benzenesulfonamide, reference compound]
> 10 µM: hAR (androgen receptor); [3] | [1]; [4] | hPPARγ; [5] | hPPARδ; [6] | [2]; [7]

C[C@@H]1CC[C@@]2(OC1)O[C@H]1C[C@H]3[C@@H]4CC[C@H]5C[C@@H](O)CC[C@]5(C)[C@H]4C[C@@H](O)[C@]3(C)[C@H]1[C@@H]2C [OR-885, 5α,20α, 22α, 25D-SPIROSTAN-3β, 12β-DIOL]
> 10 µM: hAR (androgen receptor) | [1] | hPPARγ | hPPARδ | [2]

CCN(c1ccc(C(O)(C(F)(F)F)C(F)(F)F)cc1)S(=O)(=O)c1ccc([N+](=O)[O-])cc1 [OR-1050, N-Ethyl-4-nitro-N-[4-(2,2,2-trifluoro-1-hydroxy-1-trifluoromethyl-ethyl)-phenyl]-benzenesulfonamide]
> 10 µM: hAR (androgen receptor); [3] | [1]; [4] | hPPARγ; [5] | hPPARδ; [6] | [2]; [7]

COc1c(C=NNc2nc(N3CCCCC3)nc(N3CCCCC3)n2)cccc1[N+](=O)[O-] [OR-2161, N-(4,6-Di-piperidin-1-yl-[1,3,5]triazin-2-yl)-N′-(2-methoxy-3-nitro-benzylidene)-hydrazine]
> 10 µM: hAR (androgen receptor); [3] | [1]; [4] | hPPARγ; [5] | hPPARδ; [6] | [2]; [7]

COC(C)CCC(C)C1CCC2C3CC(O)C4CC(O)CCC4(C)C3CCC12C (centres unmarked) [OR-12872, 17-(4-Methoxy-1-methyl-pentyl)-10,13-dimethyl-hexadecahydro-cyclopenta[a]phenanthrene-3,6-diol]
> 10 µM: hAR (androgen receptor); [3] | [1]; [4] | hPPARγ; [5] | hPPARδ; [6] | [2]; [7]

CCn1c(CNc2ccc(Cl)cc2)nnc1SCC(=O)Nc1cccc2ccccc12 [OR-133008, 2-{5-[(4-Chloro-phenylamino)-methyl]-4-ethyl-4H-[1,2,4]triazol-3-ylsulfanyl}-N-naphthalen-1-yl-acetamide]
> 10 µM: hAR (androgen receptor); [3] | [1]; [4] | hPPARγ; [5] | hPPARδ; [6] | [2]; [7]
